The values that follow come from BindingDB's records for patent US20250099442 (Prothena Biosciences, 2025).

Structures are written as SMILES. Where only a bound is given, the exact number is not on record here.

In this experiment the target is Dual specificity tyrosine-phosphorylation-regulated kinase 1A (Homo sapiens, UniProt Q13627). Description: DYRK1A Inhibition Assay. On the procedure:
Assay Procedure1. Add 5 μL enzyme & substrate mixture to each well in Column 2-23 and A24-H24 wells of the 384-well assay plate;2. Add 5 μL 0% Phosphorylation control to A1-H1 and I24-P24 wells of the assay plate;3. Add 5 μL 100% Phosphorylation control to I1-P1 wells of the assay plate;4. Spin the assay plate (1000 rpm, 1 minute @23° C.);5. Incubate enzyme with compounds for 15 minutes at 23° C.;6. Add 5 μL ATP solution to each well of the assay plate;7. Spin the plate (1000 rpm, 1 minute @23° C.);8. Incubate the assay plate for 90 minutes at 23° C.;9. Add 10 μL Development reagent A to each well of the assay plate;10. Centrifuge the plate at 1000 rpm about 15 seconds and seal a film over assay plate. Incubate the assay plate for 30 minutes at 23° C.11. Read assay plates on Envision

As usually defined, the IC50 is the concentration needed to halve the response being measured. Lower therefore signals greater potency in that assay. With `c1cc(-c2c[nH]c3cnccc23)ccn1` [US20250099442, Compound I.1], the IC50 fell in the range of 10 to 100 nM.

On to `O=C(OCc1ccccc1)N1CCC(n2cnc3ccc(-c4ccncc4)cc32)CC1` [US20250099442, Compound I.30], for which the IC50 lay within 10 to 100 nM.

Take `CC(C)CN1CCC(C(=O)Nc2cc(-c3ccc4c(cnn4C)c3)ccn2)CC1` [US20250099442, Compound I.17]: the IC50 was 10 to 100 nM.

As for `CN1CCC(C(=O)Nc2ncc(-c3ccc4ncn(C)c4c3)s2)CC1` [US20250099442, Compound I.102], the IC50 lay in the range of 10 to 100 nM.

Turning to `COCCn1nc2cnccc2c1-c1ccnc(NC(=O)C2CC2)c1` [US20250099442, Compound I.26], the IC50 is greater than 1000 nM.

Compound `c1cc(-c2ccc3ncn(C4CCNCC4)c3c2)ccn1` [US20250099442, Compound I.31] had an IC50 of 100 to 1000 nM.

Regarding `CN1CC2C(C1)C2C(=O)Nc1cc2cc(-c3ccncc3)cn2cn1` (stereo not drawn) [US20250099442, Compound I.72], the IC50 is 10 to 100 nM.

In the case of `Cc1c(-c2ccncc2)cn2cnc(NC(=O)C3C4CNCC43)cc12` (stereo not drawn) [US20250099442, Compound I.74], the IC50 was 10 to 100 nM.

In the case of `C[C@@H]1CC(C(=O)Nc2cn3cc(-c4ccncc4)ccc3n2)C[C@H](C)N1C` (stereo partly drawn) [US20250099442, Compound I.66], the IC50 was in the range of 10 to 100 nM.

The compound `CN1C2CCC1CC(C(=O)Nc1nc3ccc(-c4ccncc4)nc3s1)C2` (stereo not drawn) [US20250099442, Compound I.69] had an IC50 of less than 10 nM.

`c1cncc(-c2cc3c(-c4ccc5c(c4)CCO5)cncc3o2)c1` [US20250099442, Compound I.11] had an IC50 greater than 1000 nM.

In the case of `CN1CCC(C(=O)Nc2cc3cc(-c4ccncc4)cn3cn2)CC1` [US20250099442, Compound I.58], the IC50 is 10 to 100 nM.

`CC(=O)Nc1ccc2cnc(NC(=O)C3CCN(C)CC3)cc2c1` [US20250099442, Compound II.22] came in with an IC50 of less than 500 nM.

The compound `CCOc1cc(-c2ccc3nc(NC(=O)[C@H]4CCCN(C)C4)sc3c2)ccn1` [US20250099442, Compound I.61] showed an IC50 of 100 to 1000 nM.

As to `CN1CCC(C(=O)Nc2cn3cc(-c4ccncc4)cc3cn2)CC1` [US20250099442, Compound I.59], the IC50 fell in the range of 10 to 100 nM.

The compound `CN1CC2CC(C1)C2C(=O)Nc1nc2ccc(-c3ccncc3)cc2s1` (stereo not drawn) [US20250099442, Compound I.52] had an IC50 of 100 to 1000 nM.

On to `NC(=O)c1ccc(-c2cnc3[nH]cc(C4CCC4)c3c2)cc1` [US20250099442, Compound I.15], for which the IC50 lay in the range of 100 to 1000 nM.

In turn, `CC(C)CN1CCC(CNc2cc(-c3c[nH]c4cnccc34)ccn2)CC1` [US20250099442, Compound I.5] displayed an IC50 of 10 to 100 nM.
